Data as given in ChEMBL document CHEMBL4680316, “JNK selective inhibitor, IQ-1S, protects the mice against lipopolysaccharides-induced sepsis” (2021).
Calls of active or inactive are those of the source. The rule behind the calls is not given here.

Key:
Mus musculus [1] = assay: Antiinflammatory activity in wild type C57BL/6 mouse model of LPS and D-galactosamine-induced sepsis assessed as decrease in area of immune cells in lungs at 50 to 200 ug, ip administered 2 hrs after LPS and D-galactosamine administration and measured after 10 hrs of post LPS administration by H and E staining based imaging analysis; format: functional, organism-based; conditions: dose 50-200 µg, time 8.0 hrs
BMDM [2] = assay: Inhibition of JNK signalling in LPS-induced sepsis wild type C57BL/6 mouse BMDM cells assessed as reduction in NF-kappaB expression at 1 uM pretreated for 1 hr by Western blot assay; format: cell-based
Mus musculus [3] = assay: Antiinflammatory activity in C57BL/6 mouse model of LPS-induced sepsis assessed as macrophages in spleen at 200 ug, iv administered 2 hrs after LPS administration and measured after 10 hrs of post LPS administration by flow cytometry analysis (reference value: 9.69 %); format: functional; conditions: dose 200 µg; time 8 hrs
Mus musculus [4] = assay: Antiinflammatory activity in wild type C57BL/6 mouse model of LPS and D-galactosamine-induced sepsis assessed as decrease in serum IL-1beta level at 50 to 200 ug, ip administered 2 hrs after LPS and D-galactosamine administration and measured after 10 hrs of post LPS administration by ELISA; format: functional, organism-based; conditions: dose 50-200 µg, time 8.0 hrs
BMDM [5] = assay: Inhibition of JNK signalling in LPS-induced sepsis wild type C57BL/6 mouse BMDM cells assessed as reduction in JNK-2 phosphorylation at 1 uM pretreated for 1 hr by Western blot assay; format: cell-based
BMDM [6] = assay: Antiinflammatory activity in CpG-induced sepsis C57BL/6 mouse BMDM cells assessed as reduction in IL-6 mRNA expression at 1 uM treated 1 hr before CpG stimulation by qRT-PCR analysis; format: functional, cell-based
BMDM [7] = assay: Antiinflammatory activity in CpG-induced sepsis C57BL/6 mouse BMDM cells assessed as reduction in IL-1beta secretion at 1 uM treated 1 hr before CpG stimulation and measured after 12 and 24 hrs by ELISA; format: functional, cell-based; conditions: time 12-24 hrs
Mus musculus [8] = assay: Antiinflammatory activity in wild type C57BL/6 mouse model of LPS and D-galactosamine-induced sepsis assessed as decrease in serum IL-6 level at 50 to 200 ug, ip administered 2 hrs after LPS and D-galactosamine administration and measured after 10 hrs of post LPS administration by ELISA; format: functional, organism-based; conditions: dose 50-200 µg, time 8.0 hrs
BMDM [9] = assay: Inhibition of JNK signalling in LPS-induced sepsis wild type C57BL/6 mouse BMDM cells assessed as reduction in p38 phosphorylation at 1 uM pretreated for 1 hr by Western blot assay; format: cell-based
Mus musculus [10] = assay: Antiinflammatory activity in C57BL/6 mouse model of LPS-induced sepsis assessed as CD8+ cells in spleen at 200 ug, iv administered 2 hrs after LPS administration and measured after 10 hrs of post LPS administration by flow cytometry analysis (reference value: 13 %); format: functional; conditions: dose 200 µg; time 8 hrs
BMDM [11] = assay: Antiinflammatory activity in LPS-induced sepsis C57BL/6 mouse BMDM cells assessed as reduction in IL-6 secretion at 1 uM treated 1 hr before LPS stimulation and measured after 12 and 24 hrs by ELISA; format: functional, cell-based; conditions: time 12-24 hrs
BMDM [12] = assay: Antiinflammatory activity in LPS-induced sepsis C57BL/6 mouse BMDM cells assessed as reduction in TNF-alpha mRNA expression at 1 uM treated 1 hr before LPS stimulation and measured after 2 and 6 hrs by qRT-PCR analysis; format: functional, cell-based; conditions: time 2-6 hrs
BMDM [13] = assay: Antiinflammatory activity in CpG-induced sepsis C57BL/6 mouse BMDM cells harboring JNK assessed as reduction in TNF mRNA expression at 1 uM pretreated for 1 hr by qRT-PCR analysis; format: functional, cell-based
Mus musculus [14] = assay: Antiinflammatory activity in wild type C57BL/6 mouse model of LPS and D-galactosamine-induced sepsis assessed as decrease in serum TNF-alpha level at 50 to 200 ug, ip administered 2 hrs after LPS and D-galactosamine administration and measured after 10 hrs of post LPS administration by ELISA; format: functional, organism-based; conditions: dose 50-200 µg, time 8.0 hrs
BMDM [15] = assay: Antiinflammatory activity in CpG-induced sepsis C57BL/6 mouse BMDM cells assessed as reduction in IL-1beta mRNA expression at 1 uM treated 1 hr before CpG stimulation by qRT-PCR analysis; format: functional, cell-based
Mus musculus [16] = assay: Antiinflammatory activity in C57BL/6 mouse model of LPS-induced sepsis assessed as CD4 cells in spleen at 200 ug, iv administered 2 hrs after LPS administration and measured after 10 hrs of post LPS administration by flow cytometry analysis (reference value: 23.8 %); format: functional; conditions: dose 200 µg; time 8 hrs
BMDM [17] = assay: Antiinflammatory activity in CpG-induced sepsis C57BL/6 mouse BMDM cells assessed as reduction in TNF-alpha secretion at 1 uM treated 1 hr before CpG stimulation and measured after 12 and 24 hrs by ELISA; format: functional, cell-based; conditions: time 12-24 hrs
BMDM [18] = assay: Antiinflammatory activity in LPS-induced sepsis C57BL/6 mouse BMDM cells assessed as reduction in IL-1beta secretion at 1 uM treated 1 hr before LPS stimulation and measured after 12 and 24 hrs by ELISA; format: functional, cell-based; conditions: time 12-24 hrs
BMDM [19] = assay: Antiinflammatory activity in CpG-induced sepsis C57BL/6 mouse BMDM cells harboring JNK assessed as reduction in Nos2 mRNA expression at 1 uM pretreated for 1 hr by qRT-PCR analysis; format: functional, cell-based
BMDM [20] = assay: Induction of IL-4-induced polarization of C57BL/6 mouse BMDM cells to M2 assessed as Mrc mRNA expression at 1 uM pretreated for 1 hr by qRT-PCR analysis; format: functional, cell-based
BMDM [21] = assay: Inhibition of JNK signalling in LPS-induced sepsis wild type C57BL/6 mouse BMDM cells assessed as reduction in AP-1 expression at 1 uM pretreated for 1 hr by Western blot assay; format: cell-based
BMDM [22] = assay: Antiinflammatory activity in CpG-induced sepsis C57BL/6 mouse BMDM cells assessed as reduction in IL-6 secretion at 1 uM treated 1 hr before CpG stimulation and measured after 12 and 24 hrs by ELISA; format: functional, cell-based; conditions: time 12-24 hrs
BMDM [23] = assay: Antiinflammatory activity in CpG-induced sepsis C57BL/6 mouse BMDM cells assessed as reduction in TNF-alpha mRNA expression at 1 uM treated 1 hr before CpG stimulation by qRT-PCR analysis; format: functional, cell-based
BMDM [24] = assay: Antiinflammatory activity in LPS-induced sepsis C57BL/6 mouse BMDM cells assessed as reduction in IL-6 mRNA expression at 1 uM treated 1 hr before LPS stimulation and measured after 2 and 6 hrs by qRT-PCR analysis; format: functional, cell-based; conditions: time 2-6 hrs
BMDM [25] = assay: Antiinflammatory activity in CpG-induced sepsis C57BL/6 mouse BMDM cells harboring JNK assessed as reduction in IL-6 mRNA expression at 1 uM pretreated for 1 hr by qRT-PCR analysis; format: functional, cell-based
BMDM [26] = assay: Inhibition of JNK signalling in LPS-induced sepsis wild type C57BL/6 mouse BMDM cells assessed as reduction in IKKbeta phosphorylation at 1 uM pretreated for 1 hr by Western blot assay; format: cell-based
BMDM [27] = assay: Antiinflammatory activity in LPS-induced sepsis C57BL/6 mouse BMDM cells assessed as reduction in IL-1beta mRNA expression at 1 uM treated 1 hr before LPS stimulation and measured after 2 and 6 hrs by qRT-PCR analysis; format: functional, cell-based; conditions: time 2-6 hrs
BMDM [28] = assay: Antiinflammatory activity in LPS-induced sepsis C57BL/6 mouse BMDM cells assessed as reduction in TNF-alpha secretion at 1 uM treated 1 hr before LPS stimulation and measured after 12 and 24 hrs by ELISA; format: functional, cell-based; conditions: time 12-24 hrs
Mus musculus [29] = assay: Antiinflammatory activity in C57BL/6 mouse model of LPS-induced sepsis assessed as neutrophils in spleen at 200 ug, iv administered 2 hrs after LPS administration and measured after 10 hrs of post LPS administration by flow cytometry analysis (reference value: 24.8 %); format: functional; conditions: dose 200 µg; time 8 hrs
BMDM [30] = assay: Induction of IL-4-induced polarization of C57BL/6 mouse BMDM cells to M2 assessed as Arg mRNA expression at 1 uM pretreated for 1 hr by qRT-PCR analysis; format: functional, cell-based
Mus musculus [31] = assay: Antiinflammatory activity in wild type C57BL/6 mouse model of LPS and D-galactosamine-induced sepsis assessed as survival of organism at 50 to 200 ug, iv administered 2 hrs before LPS and D-galactosamine administration and observed for 20 hrs; format: functional, organism-based; conditions: dose 50-200 µg, time 22.0 hrs
BMDM [32] = assay: Inhibition of JNK signalling in LPS-induced sepsis wild type C57BL/6 mouse BMDM cells assessed as reduction in IkappaBalpha phosphorylation at 1 uM pretreated for 1 hr by Western blot assay; format: cell-based

## [Na+].[O-]/N=C1/c2ccccc2-c2nc3ccccc3nc21
Mus musculus [1]
  Activity: Active
BMDM [2]
  inhibition: inactive
Mus musculus [3]
  Activity: 8.6%
Mus musculus [4]
  Activity: Active
BMDM [5]
  inhibition: Active
BMDM [6]
  Activity: Active
BMDM [7]
  Activity: Active
Mus musculus [8]
  Activity: Active
BMDM [9]
  inhibition: Active
Mus musculus [10]
  Activity: 9.2%
BMDM [11]
  Activity: Active
BMDM [12]
  Activity: Active
BMDM [13]
  Activity: Active
Mus musculus [14]
  Activity: Active
BMDM [15]
  Activity: Active
Mus musculus [16]
  Activity: 17.2%
BMDM [17]
  Activity: Active
BMDM [18]
  Activity: Active
BMDM [19]
  Activity: Active
BMDM [20]
  Activity: inactive
BMDM [21]
  inhibition: Active
BMDM [22]
  Activity: Active
BMDM [23]
  Activity: Active
BMDM [24]
  Activity: Active
BMDM [25]
  Activity: Active
BMDM [26]
  inhibition: Active
BMDM [27]
  Activity: Active
BMDM [28]
  Activity: Active
Mus musculus [29]
  Activity: 18.8%
BMDM [30]
  Activity: inactive
Mus musculus [31]
  Activity: Active
BMDM [32]
  inhibition: Active
